From US20180155757A1, “IDENTIFICATION OF BACTERIA THAT ARE RESISTANT TO CARBAPENEMS BY MEMBRANE IMPERVIOUSNESS” (BIOMÉRIEUX, priority 2015, published 2018)
Like-named read-outs stand apart in the source and are kept apart here.

Experiments:
[1] = test system: C. freundii 0403012; assay: Etest MIC of indicator carbapenems on MH II agar without/with PMBN; format: cell-based
Procedure: (§1) The determinations of antibiotic MIC were carried out on solid culture media with the Etest® method. To do this, Etest® strips (bioMérieux, France) were used: • Etest® Imipenem IM 32, and • Etest® Ertapenem ETP 32, and also solid culture media, differing from one another by virtue of their non-inhibitory concentrations of PMBN.
(§2) These solid culture media are prepared in Petri dishes (0=145 mm; V=50 ml) on a base of MH II Agar (Becton Dickinson®, United States), more or less supplemented with PMBN. The PMBN concentrations range from 0 up to concentrations equivalent to one fifth of the MIC of PMBN (⅕ MICPMBN).
(§3) Using a swab and the Retro C80™ rota-plater (bioMérieux, France), the culture media were inoculated with the bacteria, originating from an inoculum of 0.5 McFarland, prepared in 0.85% NaCl solution from colonies subcultured the day before on MH II agar.
(§4) The various Etest® strips are then deposited on the surface of the culture media. After 16 to 20 hours of incubation at 35° C., the MICS were read.
(§5) To do this, imipenem and ertapenem were used as indicator carbapenems. Non-inhibitory concentrations of PMBN, equivalent to concentrations of one tenth ( 1/10), one eighth (⅛) and one fifth (⅕) of the MIC of PMBN, were applied.

[2] = test system: C. freundii 1204047; assay: as above; format: cell-based
Procedure: as §1, §2, §3, §4, §5

[3] = test system: E. cloacae 1008079 (IMP-1 producer); assay: as above; format: cell-based
Procedure: as §1, §2, §3, §4, §5

[4] = test system: E. cloacae 1101172 (NDM producer); assay: as above; format: cell-based
Procedure: as §1, §2, §3, §4, §5

[5] = test system: E. cloacae 9304026; assay: as above; format: cell-based
Procedure: as §1, §2, §3, §4, §5

[6] = test system: E. coli 1008077 (VIM-1 producer); assay: as above; format: cell-based
Procedure: as §1, §2, §3, §4, §5

[7] = test system: E. coli 1012292 (KPC-2 producer); assay: as above; format: cell-based
Procedure: as §1, §2, §3, §4, §5

[8] = test system: K. pneumoniae 0404024 (VIM-1 producer); assay: as above; format: cell-based
Procedure: as §1, §2, §3, §4, §5

[9] = test system: K. pneumoniae 1012335 (OXA-48 producer); assay: as above; format: cell-based
Procedure: as §1, §2, §3, §4, §5

[10] = test system: K. pneumoniae 1108001 (KPC-2 producer); assay: as above; format: cell-based
Procedure: as §1, §2, §3, §4, §5

[11] = test system: K. pneumoniae 1108002 (KPC-3 producer); assay: as above; format: cell-based
Procedure: as §1, §2, §3, §4, §5

[12] = test system: K. pneumoniae 1108006 (KPC-2 producer); assay: as above; format: cell-based
Procedure: as §1, §2, §3, §4, §5

[13] = test system: K. pneumoniae 1108007 (VIM-1 producer); assay: as above; format: cell-based
Procedure: as §1, §2, §3, §4, §5

[14] = test system: K. pneumoniae 1108016 (VIM-1 producer); assay: as above; format: cell-based
Procedure: as §1, §2, §3, §4, §5

[15] = test system: carbapenem-resistant bacterial strains
Text: For each strain tested, each PMBN concentration and each indicator carbapenem, the MIC measured is compared to that obtained in the absence of PMBN. In the light of the possible difference in MIC values, a prognosis for the mechanism of resistance developed by the strain tested is established by applying the following general premise: A decrease in MICIM/ETP in the presence of PMBN is an indication of carbapenem resistance by membrane impermeability. In any other case, another mechanism of resistance is implicated.
For the purposes of verifying the accuracy of the prognoses established and the relevance of the general premise mentioned above: • each strain was tested by Western blot with the view to detection of porins (in the case in point, of the OmpF and OmpC isoforms), and • for some of the strains tested, in particular those for which there remains a doubt as to the mechanism of resistance developed (prognosis established in contradiction with the results of the porin detection by Western blot), a test for detecting carbapenemases by means of the RAPIDEC® CARBA NP kit (bioMérieux, France) was also carried out.
As regards the results thus obtained, the characterization of the strains termed carbapenem resistant by membrane impermeability is established either by the absence of porins detected by Western blot, or by carbapenem resistance that is not linked to the presence of carbapenemase, verified by a molecular method (PCR) and/or by a phenotypic method (RAPIDEC® CARBA NP).
A second method of interpretation of the results compiled in table 3 is proposed here. The prognosis system is based on the following “refined” premise: A decrease in MICIM/ETP, in the presence of PMBN, by at least a factor of 4 (that is to say with a difference in MIC of 2 doubling dilutions), is the signal of carbapenem resistance by membrane impermeability. If not, another mechanism of resistance is implicated.

C[C@@H](O)[C@H]1C(=O)N2C(C(=O)O)=C(S[C@@H]3CN[C@H](C(=O)Nc4cccc(C(=O)O)c4)C3)[C@H](C)[C@H]12 [ETP, ertapenem]
MIC ([1]; [PMBN] 0): 8 µg/mL
MIC ([1]; [PMBN] MIC/5): 4 µg/mL
MIC ([1]; [PMBN] MIC/8): 4 µg/mL
MIC ([1]; [PMBN] MIC/10): 8 µg/mL
MIC ([2]; [PMBN] 0): 32 µg/mL
MIC ([2]; [PMBN] MIC/5): 4 µg/mL
MIC ([2]; [PMBN] MIC/8): 8 µg/mL
MIC ([2]; [PMBN] MIC/10): 8 µg/mL
MIC ([3]; [PMBN] 0): 4 µg/mL
MIC ([3]; [PMBN] MIC/5): 8 µg/mL
MIC ([3]; [PMBN] MIC/8): 8 µg/mL
MIC ([3]; [PMBN] MIC/10): 8 µg/mL
MIC ([4]; [PMBN] 0): 4 µg/mL
MIC ([4]; [PMBN] MIC/5): 4 µg/mL
MIC ([4]; [PMBN] MIC/8): 8 µg/mL
MIC ([4]; [PMBN] MIC/10): 8 µg/mL
MIC ([5]; [PMBN] 0): 16 µg/mL
MIC ([5]; [PMBN] MIC/5): 8 µg/mL
MIC ([5]; [PMBN] MIC/8): 8 µg/mL
MIC ([5]; [PMBN] MIC/10): 4 µg/mL
MIC ([6]; [PMBN] 0): 8 µg/mL
MIC ([6]; [PMBN] MIC/5): 4 µg/mL
MIC ([6]; [PMBN] MIC/8): 4 µg/mL
MIC ([6]; [PMBN] MIC/10): 4 µg/mL
MIC ([7]; [PMBN] 0): 8 µg/mL
MIC ([7]; [PMBN] MIC/5): 2 µg/mL
MIC ([7]; [PMBN] MIC/8): 4 µg/mL
MIC ([7]; [PMBN] MIC/10): 4 µg/mL
MIC ([8]; [PMBN] 0): 128 µg/mL
MIC ([8]; [PMBN] MIC/5): 16 µg/mL
MIC ([8]; [PMBN] MIC/8): 32 µg/mL
MIC ([8]; [PMBN] MIC/10): 32 µg/mL
MIC ([9]; [PMBN] 0): 2 µg/mL
MIC ([9]; [PMBN] MIC/5): 4 µg/mL
MIC ([9]; [PMBN] MIC/8): 4 µg/mL
MIC ([9]; [PMBN] MIC/10): 4 µg/mL
MIC ([10]; [PMBN] 0): 16 µg/mL
MIC ([10]; [PMBN] MIC/5): 8 µg/mL
MIC ([10]; [PMBN] MIC/8): 8 µg/mL
MIC ([10]; [PMBN] MIC/10): 16 µg/mL
MIC ([11]; [PMBN] 0): 16 µg/mL
MIC ([11]; [PMBN] MIC/5): 64 µg/mL
MIC ([11]; [PMBN] MIC/8): 64 µg/mL
MIC ([11]; [PMBN] MIC/10): 64 µg/mL
MIC ([12]; [PMBN] 0): 64 µg/mL
MIC ([12]; [PMBN] MIC/5): 256 µg/mL
MIC ([12]; [PMBN] MIC/8): 256 µg/mL
MIC ([12]; [PMBN] MIC/10): 256 µg/mL
MIC ([13]; [PMBN] 0): 8 µg/mL
MIC ([13]; [PMBN] MIC/5): 8 µg/mL
MIC ([13]; [PMBN] MIC/8): 16 µg/mL
MIC ([13]; [PMBN] MIC/10): 16 µg/mL
MIC ([14]; [PMBN] 0): 1 µg/mL
MIC ([14]; [PMBN] MIC/5): 2 µg/mL
MIC ([14]; [PMBN] MIC/8): 4 µg/mL
MIC ([14]; [PMBN] MIC/10): 4 µg/mL
reliability of a negative prognosis with regard to resistance by membrane impermeability ([15]; general premise): 90%
reliability of a positive prognosis with regard to resistance by membrane impermeability ([15]; general premise): 66%
reliability of a negative prognosis with regard to resistance by membrane impermeability ([15]; refined premise): 85%
reliability of a positive prognosis with regard to resistance by membrane impermeability ([15]; refined premise): 86%

C[C@@H](O)[C@H]1C(=O)N2C(C(=O)O)=C(SCCN=CN)C[C@H]12 [IM, imipenem]
MIC ([1]; [PMBN] 0): 4 µg/mL
MIC ([1]; [PMBN] MIC/5): 1 µg/mL
MIC ([1]; [PMBN] MIC/8): 1 µg/mL
MIC ([1]; [PMBN] MIC/10): 2 µg/mL
MIC ([2]; [PMBN] 0): 1 µg/mL
MIC ([2]; [PMBN] MIC/5): 1 µg/mL
MIC ([2]; [PMBN] MIC/8): 1 µg/mL
MIC ([2]; [PMBN] MIC/10): 2 µg/mL
MIC ([3]; [PMBN] 0): 2 µg/mL
MIC ([3]; [PMBN] MIC/5): 2 µg/mL
MIC ([3]; [PMBN] MIC/8): 2 µg/mL
MIC ([3]; [PMBN] MIC/10): 4 µg/mL
MIC ([4]; [PMBN] 0): 4 µg/mL
MIC ([4]; [PMBN] MIC/5): 4 µg/mL
MIC ([4]; [PMBN] MIC/8): 16 µg/mL
MIC ([4]; [PMBN] MIC/10): 8 µg/mL
MIC ([5]; [PMBN] 0): 8 µg/mL
MIC ([5]; [PMBN] MIC/5): 4 µg/mL
MIC ([5]; [PMBN] MIC/8): 4 µg/mL
MIC ([5]; [PMBN] MIC/10): 4 µg/mL
MIC ([6]; [PMBN] 0): 16 µg/mL
MIC ([6]; [PMBN] MIC/5): 16 µg/mL
MIC ([6]; [PMBN] MIC/8): 16 µg/mL
MIC ([6]; [PMBN] MIC/10): 8 µg/mL
MIC ([7]; [PMBN] 0): 8 µg/mL
MIC ([7]; [PMBN] MIC/5): 1 µg/mL
MIC ([7]; [PMBN] MIC/8): 4 µg/mL
MIC ([7]; [PMBN] MIC/10): 4 µg/mL
MIC ([8]; [PMBN] 0): 64 µg/mL
MIC ([8]; [PMBN] MIC/5): 64 µg/mL
MIC ([8]; [PMBN] MIC/8): 64 µg/mL
MIC ([8]; [PMBN] MIC/10): 64 µg/mL
MIC ([9]; [PMBN] 0): 2 µg/mL
MIC ([9]; [PMBN] MIC/5): 2 µg/mL
MIC ([9]; [PMBN] MIC/8): 2 µg/mL
MIC ([9]; [PMBN] MIC/10): 2 µg/mL
MIC ([10]; [PMBN] 0): 8 µg/mL
MIC ([10]; [PMBN] MIC/5): 4 µg/mL
MIC ([10]; [PMBN] MIC/8): 8 µg/mL
MIC ([10]; [PMBN] MIC/10): 8 µg/mL
MIC ([11]; [PMBN] 0): 16 µg/mL
MIC ([11]; [PMBN] MIC/5): 16 µg/mL
MIC ([11]; [PMBN] MIC/8): 16 µg/mL
MIC ([11]; [PMBN] MIC/10): 16 µg/mL
MIC ([12]; [PMBN] 0): 32 µg/mL
MIC ([12]; [PMBN] MIC/5): 32 µg/mL
MIC ([12]; [PMBN] MIC/8): 64 µg/mL
MIC ([12]; [PMBN] MIC/10): 32 µg/mL
MIC ([13]; [PMBN] 0): 32 µg/mL
MIC ([13]; [PMBN] MIC/5): 16 µg/mL
MIC ([13]; [PMBN] MIC/8): 16 µg/mL
MIC ([13]; [PMBN] MIC/10): 16 µg/mL
MIC ([14]; [PMBN] 0): 4 µg/mL
MIC ([14]; [PMBN] MIC/5): 4 µg/mL
MIC ([14]; [PMBN] MIC/8): 8 µg/mL
MIC ([14]; [PMBN] MIC/10): 8 µg/mL
reliability of a negative prognosis with regard to resistance by membrane impermeability ([15]; general premise): 87%
reliability of a positive prognosis with regard to resistance by membrane impermeability ([15]; general premise): 73%
reliability of a negative prognosis with regard to resistance by membrane impermeability ([15]; refined premise): 77%
reliability of a positive prognosis with regard to resistance by membrane impermeability ([15]; refined premise): 95%
